Assay results published in the supplement of paper PMC7108870.

What was measured:
HEK293sieSTAT3(Y640F) [1] = assay: drug sensitivity score (DSS), viability CellTiter-Glo (DSS (dimensionless)); higher = more growth inhibition; extreme values may be limits of the assay; conditions: 72 h; STAT3 variant: Y640F (constitutively active)
Summary of the method: (§1)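 Compounds were acoustically pre-plated in 384-well plates at 5 concentrations spaced by 10-fold dilutions, and HEK293 cells overexpressing wild-type or mutant STAT3 and carrying a STAT3-dependent luciferase reporter were added at 100,000 cells/ml in 20 μl. After 72 hours at 37°C and 5% CO2, the plates were read on a PHERAstar FS for CellTox Green fluorescence (485/520 nm) and then CellTiter-Glo luminescence. A drug sensitivity score derived from dose-response curve area was calculated in Breeze from values normalised to negative and positive control wells.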

HEK293sieSTAT3(wt) [2] = assay: as above; conditions: 72 h; STAT3 variant: wild type
Summary of the method: as §1

HEK293sieSTAT3(Y640F) [3] = assay: drug sensitivity score (DSS), cytotoxicity CellTox Green (DSS (dimensionless)); higher = more cytotoxic; extreme values may be limits of the assay; conditions: 72 h; STAT3 variant: Y640F (constitutively active)
Summary of the method: as §1

HEK293sieSTAT3(wt) [4] = assay: as above; conditions: 72 h; STAT3 variant: wild type
Summary of the method: as §1

SMILES	drug sensitivity score (HEK293sieSTAT3(Y640F) [1])	drug sensitivity score (HEK293sieSTAT3(wt) [2])	drug sensitivity score (HEK293sieSTAT3(Y640F) [3])	drug sensitivity score (HEK293sieSTAT3(wt) [4])
CN1CCC(CNc2ccc3ncc(-c4cccc(OC(F)(F)F)c4)n3n2)CC1 [SGI-1776] (top concentration tested 10000 nM)	6.8	9.07	4.99	7.56
Cn1cc(-c2ccc3nnc(Sc4ccc5ncccc5c4)n3n2)cn1 [SGX-523] (top concentration tested 5000 nM)	0	0.49	0.89	0
CN(CC(=O)N(Cc1ccc(C2CCCCC2)cc1)c1ccc(C(=O)O)cc1)S(=O)(=O)c1c(F)c(F)c(F)c(F)c1F [SH-4-54] (top concentration tested 25000 nM)	10.1	10.8	5.59	9.04
CC(C)NC(=O)COc1cccc(-c2nc(Nc3ccc4[nH]ncc4c3)c3ccccc3n2)c1 [SLx-2119] (top concentration tested 5000 nM)	10.7	5.8	0	0.57
CCc1c2c(nc3ccc(O)cc13)-c1cc3c(c(=O)n1C2)COC(=O)[C@]3(O)CC [SN-38] (top concentration tested 10000 nM)	42	40.7	14.3	22.4
CC(C)(C)c1cnc(CSc2cnc(NC(=O)C3CCNCC3)s2)o1 [SNS-032] (top concentration tested 10000 nM)	25.3	26.7	10.3	22.6
O=C(Nc1cccc(Cl)c1)Nc1ncc(CCNc2ncnc3ccsc23)s1 [SNS-314] (top concentration tested 1000 nM)	5.69	5	0	2.17
Cc1cc2c(C(=O)NC[C@H](C)c3ccccc3)c(O)c(O)cc2c(O)c1-c1c(C)cc2c(C(=O)NC[C@H](C)c3ccccc3)c(O)c(O)cc2c1O [Sabutoclax] (top concentration tested 25000 nM)	26.4	27.8	12.2	9.82
CNC(=O)CN1CCC(Oc2cc3c(Nc4cccc(Cl)c4F)ncnc3cc2OC)CC1 [Sapitinib] (top concentration tested 1000 nM)	1.89	0	0	0
CN1CCN(CCOc2cc(OC3CCOCC3)c3c(Nc4c(Cl)ccc5c4OCO5)ncnc3c2)CC1 [Saracatinib] (top concentration tested 10000 nM)	7.28	6.87	1.77	9.4
CC[C@H](CO)Nc1nc(NCc2ccccc2)c2ncn(C(C)C)c2n1 [Seliciclib] (top concentration tested 10000 nM)	6.02	6.69	2.48	6.62
O=C(/C=C\n1cnc(-c2cc(C(F)(F)F)cc(C(F)(F)F)c2)n1)NNc1cnccn1 [Selinexor] (top concentration tested 10000 nM)	26.9	30.8	14.5	26.4
Cn1cnc2c(F)c(Nc3ccc(Br)cc3Cl)c(C(=O)NOCCO)cc21 [Selumetinib] (top concentration tested 10000 nM)	1.4	0.99	0.68	0
Cc1cc(C)c(/C=C2\C(=O)Nc3ccccc32)[nH]1 [Semaxanib] (top concentration tested 10000 nM)	0	2.08	3.22	8.57
c1ccc2c(CCNc3ccc(Nc4ccncc4)cc3)c[nH]c2c1 [Serdemetan] (top concentration tested 10000 nM)	5.06	7.89	0	1.74
O=C(O)c1ccc2c(c1)nc(Nc1cccc(Cl)c1)c1ccncc12 [Silmitasertib] (top concentration tested 10000 nM)	6.52	7.79	0	1.84
CO[C@H]1C[C@@H]2CC[C@@H](C)[C@@](O)(O2)C(=O)C(=O)N2CCCC[C@H]2C(=O)O[C@H]([C@H](C)C[C@@H]2CC[C@@H](O)[C@H](OC)C2)CC(=O)[C@H](C)/C=C(\C)[C@@H](O)[C@@H](OC)C(=O)[C@H](C)C[C@H](C)/C=C/C=C/C=C/1C [Sirolimus] (top concentration tested 100 nM)	7	9.09	0	0
Cc1c(C(=O)Nc2ccc(N3C[C@@H](C)O[C@@H](C)C3)nc2)cccc1-c1ccc(OC(F)(F)F)cc1 [Sonidegib] (top concentration tested 10000 nM)	1.71	3.16	0	0
